Measured values: patent publication EP3958980B1, “TARGETED NOVEL TRIAZOLOTHIADIAZINE DERIVATIVES FOR THE TREATMENT OF LUNG CANCER” (Anadolu Universitesi, priority 2020, dated 2021)
Several values for one entry are separate records, joined by “and”; a condition that tells them apart may be missing. Equal entries are not always repeated.

Experiments:
A549 cells = experiment: JC-1 staining, mitochondrial membrane integrity by flow cytometry; assay type: cell-based, human; settings: 24 hours, IC50 concentrations
Protocol: After the active compounds were determined with the MTT assay, the determination of mitochondrial membrane integrity in A549 cells depending on IC50 concentrations were carried out in flow cytometry with BD, Pharmingen flow cytometry kit according to the manufacturer's recommendations. Briefly, the cells were seeded with optimal density (must not exceed 1×10^6 cell/mL). Following this, the cells were incubated with concentrations and time suitable for the compounds to be tested. After treatment, each cell suspension was transferred into a 15 mL polystyrene centrifuge tube and the cells were centrifuged at 400 × g for 5 minutes at room temperature, and supernatant was removed. Later, 0.5 mL freshly prepared working solution was added to each pellet and was vortexed. The cells were incubated in JC-1 working solution at 37 °C for 10-15 minutes and they were washed twice. In the first wash, 2 mL 1X assay buffer was added and the cells were precisely suspended. Following this, the cells were centrifuged at 400 × g for 5 minutes and the supernatant was removed carefully. In the next wash, 1 mL 1X assay buffer was added and was vortexed. After the cells were centrifuged at 400 × g for 5 minutes, each cell pellet was suspended in a 0.5 mL 1X assay buffer and was vortexed. Finally, the cell is analyzed with flow cytometry.

COX-1 = target: T1, COX-1 (Homo sapiens, UniProt P23219); experiment: COX activity assay (colorimetric kit) on lysates of treated A549 cells, COX-1; assay type: cell-based; settings: 24 hours incubation, IC50 concentrations
T1 construct: endogenous in cells; host or cells: A549
T1 sequence (P23219 24-599): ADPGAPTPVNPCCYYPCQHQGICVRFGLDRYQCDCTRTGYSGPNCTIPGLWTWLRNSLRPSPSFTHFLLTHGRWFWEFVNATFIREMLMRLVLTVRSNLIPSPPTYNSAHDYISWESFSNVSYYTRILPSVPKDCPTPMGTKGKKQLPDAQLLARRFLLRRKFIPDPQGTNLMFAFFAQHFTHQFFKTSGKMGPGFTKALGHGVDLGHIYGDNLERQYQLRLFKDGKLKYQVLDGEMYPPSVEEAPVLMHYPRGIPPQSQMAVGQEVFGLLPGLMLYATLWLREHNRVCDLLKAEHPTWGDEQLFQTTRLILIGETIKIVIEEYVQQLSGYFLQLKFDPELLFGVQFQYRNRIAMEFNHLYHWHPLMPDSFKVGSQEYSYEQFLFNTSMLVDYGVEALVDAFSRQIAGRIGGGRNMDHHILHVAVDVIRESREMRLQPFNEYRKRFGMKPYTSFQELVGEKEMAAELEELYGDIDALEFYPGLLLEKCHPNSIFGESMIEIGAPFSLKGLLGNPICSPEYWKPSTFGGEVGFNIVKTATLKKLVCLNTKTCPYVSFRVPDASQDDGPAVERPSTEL
Protocol: (§1) The intracellular COX, Akt and ROCK inhibitory effects of the active compounds determined with the MTT assay, were measured with the colorimetric assay according to the manufacturer's recommendations.
(§2) COX activity was carried out using Cayman COX activity assay kit in compliance with the manufacturer's recommendations. Briefly, 150 µL of each sample was kept in boiling water for 5 minutes and centrifuged at 8000 × g for 1 minute and it was used to obtain background values. […] 110 µL assay solution, 10 µL hemin and 40 µL sample, 10 µL DuP-697 or SC-560 was added to the inhibitor wells (DuP-697 inhibits COX-2 activity; while SC-560 inhibits COX-1 activity). The plate was shaked for a few seconds and it was left at 25 °C for 5 minutes. 20 µL colorimetric substrate was added to all wells. Moreover, a reaction was started by adding 20 µL arachidonic acid solution and the plate was shaked for a few seconds and it was left at 25 °C for 5 minutes. The absorbance values were read at 540 nm.

COX-2 = target: T2, COX-2 (Homo sapiens, UniProt P35354); experiment: COX activity assay (colorimetric kit) on lysates of treated A549 cells, COX-2; assay type: cell-based; settings: 24 hours incubation, IC50 concentrations
T2 construct: endogenous in cells; host or cells: A549
T2 sequence (P35354 18-604): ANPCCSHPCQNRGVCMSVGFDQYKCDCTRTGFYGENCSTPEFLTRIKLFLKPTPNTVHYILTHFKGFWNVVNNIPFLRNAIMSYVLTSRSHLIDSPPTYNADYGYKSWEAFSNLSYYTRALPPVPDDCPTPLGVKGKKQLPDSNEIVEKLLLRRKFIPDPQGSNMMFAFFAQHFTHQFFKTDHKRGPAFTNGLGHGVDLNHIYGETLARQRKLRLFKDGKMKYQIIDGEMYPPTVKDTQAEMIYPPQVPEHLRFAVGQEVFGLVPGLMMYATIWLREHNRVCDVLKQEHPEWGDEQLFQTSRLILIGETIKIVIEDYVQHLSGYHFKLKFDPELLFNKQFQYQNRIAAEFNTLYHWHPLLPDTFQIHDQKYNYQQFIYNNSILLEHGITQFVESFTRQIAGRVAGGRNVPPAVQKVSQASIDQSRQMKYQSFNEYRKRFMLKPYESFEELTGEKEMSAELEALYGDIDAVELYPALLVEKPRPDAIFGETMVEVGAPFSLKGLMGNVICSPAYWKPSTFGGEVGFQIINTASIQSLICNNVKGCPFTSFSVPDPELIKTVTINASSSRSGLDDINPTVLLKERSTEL
Protocol: as §1, §2

Akt = Akt colorimetric in cell ELISA in A549 cells; assay type: cell-based, human; settings: 24 hours; for Akt inhibition (in words): compared to cisplatin and GSK690693
Protocol: After 10.000 cells were seeded in the wells, they were kept in the incubator for 24 hours. […] Briefly, the medium was removed from the wells and 100 µL of 4% formaldehyde was added. The plate was incubated in a fume hood for 15 minutes. Formaldehyde was removed and the plate was washed twice with 1X […] (TBS) such as to be 100 µL/well. 1X TBS was removed and 100 µL 1X permeabilization solution was added to each well and it was kept at room temperature for 15 minutes. After the 1X permeabilization solution was removed, the wells were washed with 100 µL 1X TBS once. 1X TBS was removed and 100 µL quenching solution was added to each well and it was kept at room temperature for 20 minutes. Afterwards, this solution was removed. The plate was washed 1 time with 1X TBS and 100 µL blocking solution was added to the wells and it was kept at room temperature for 30 minutes. At the end of this period, the blocking solution was removed and 50 µL primary antibody was added to the wells. The plate was sealed with a cover and it was incubated overnight at 4 °C. The primary antibody was removed and the plate wells were washed 3 times with 100 µL 1X washing solution. After the washing solution was removed, 100 µL diluted horseradish peroxidase (HRP) conjugate was added and it was incubated at room temperature for 30 minutes. Later on this conjugate was removed and 100 µL 3,3',5,5'-tetramethylbenzidine (TMB) […] was added to each well and the absorbance values were read at 450 nm for 30 minutes. The experiment was carried out in triplicate. The values of the blank wells were subtracted from the values of the untreated control and treated cells. The Akt activity% was determined as the relative absorbance of treated versus untreated control cells.

[1] = IC50/2 concentration (9: 2.88; 11: 0.37; 12: 0.40; 14: 1.32; GSK690693: 3.34; Cisplatin: 11.50 µg/mL)
[2] = IC50/4 concentration (9: 1.44; 11: 0.18; 12: 0.20; 14: 0.66; GSK690693: 1.69; Cisplatin: 5.75 µg/mL)
[3] = IC50 concentration (9: 5.75; 11: 0.73; 12: 0.80; 14: 2.63; GSK690693: 6.75; Cisplatin: 23.00 µg/mL)

Compound	Mitochondrial membrane depolarized (P2) cells% (A549 cells) [%]	Mitochondrial membrane polarized (P1) cells% (A549 cells) [%]	COX-1 Inhibition% (COX-1) [%]	COX-1 activity (U/mL) (COX-1)	COX-2 Inhibition% (COX-2)	COX-2 activity (U/mL) (COX-2)	Akt Inhibition% (Akt; [1]) [%]	Akt Inhibition% (Akt; [2]) [%]	Akt Inhibition% (Akt; [3])	Akt Inhibition% (Akt; IC50 concentration (9: 5.75; 11: 0.73; 12: 0.80; 14: 2.63; GSK690693: 6.75; Cisplatin: 23.00 µg/mL), listed as cisplatin) [%]	Akt inhibition (in words) (Akt)
N.N.[Cl][Pt][Cl] [Cisplatin, reference compound]	48.00	52.40	24.65	3.08	43.46%	2.38	56.23±1.45	50.46±6.89	59.55±8.44%	59.55	–
CS(=O)(=O)c1ccc(C2=Nn3c(CCc4ccc5c(c4)OCO5)nnc3SC2)cc1 [Compound 9]	8.80	91.10	35.21	3.41	32.66%	3.60	7.31±1.48	15.99±1.06	45.47% and 45.47±3.76%	–	moderate Akt inhibition
FC(F)(F)c1ccc(C2=Nn3c(CCc4ccc5c(c4)OCO5)nnc3SC2)cc1 [Compound 11, 3-[2-(1,3-Benzodioxole-5-yl)ethyl]-6-(4-trifluoromethylphenyl)-7H-[1,2,4]triazolo [3,4-b][1,3,4]thiadiazine]	58.80	41.30	54.18	1.88	–	1.46	6.66±3.51	0.91±1.29	8.18±3.74%	–	did not exhibit significant Akt inhibition
Fc1cccc(C2=Nn3c(CCc4ccc5c(c4)OCO5)nnc3SC2)c1 [Compound 12, 3-[2-(1,3-Benzodioxole-5-yl)ethyl]-6-(3-fluorophenyl)-7H-[1,2,4]triazolo [3,4-b] [1,3,4]thiadiazine]	47.00	53.00	–	2.51	53.52%	1.95	16.67±0.05	19.24±2.43	46.87% and 46.87±4.60%	–	moderate Akt inhibition
c1ccc(-c2ccc(C3=Nn4c(CCc5ccc6c(c5)OCO6)nnc4SC3)cc2)cc1 [Compound 14, 3-[2-(1,3-Benzodioxole-5-yl)ethyl]-6-(biphenyl-4-yl)-7H-[1,2,4]triazolo[3,4-b] [1,3,4]thiadiazine]	47.20	53.20	2.19	4.15	15.17% and 15.70%	3.56	15.99±3.66	23.51±3.00	44.30% and 44.30±5.68%	–	moderate Akt inhibition
